Measured values published in ChEMBL document CHEMBL3784915, “Design and synthesis of novel benzo[d]oxazol-2(3H)-one derivatives bearing 7-substituted-4-enthoxyquinoline moieties as c-Met kinase inhibitors” (Eur J Med Chem, 2016).

Experiments:
[1] = cells; conditions: Homo sapiens, EBC-1, 72 h
Description: Cytotoxicity against human EBC1 cells assessed as inhibition of cell proliferation after 72 hrs by sulforhodamine B assay

[2] = target: Hepatocyte growth factor receptor (Homo sapiens, UniProt P08581); assay: Inhibition of N-terminal 6His-tagged human recombinant c-MET expressed in baculovirus infected Sf21 cells using poly Ala-Glu-Lys-Tyr (6:2:5:1) as substrate after 3 hrs by scintillation counting in presence of [33P]-ATP
Hepatocyte growth factor receptor, sequence (P08581 whole entry): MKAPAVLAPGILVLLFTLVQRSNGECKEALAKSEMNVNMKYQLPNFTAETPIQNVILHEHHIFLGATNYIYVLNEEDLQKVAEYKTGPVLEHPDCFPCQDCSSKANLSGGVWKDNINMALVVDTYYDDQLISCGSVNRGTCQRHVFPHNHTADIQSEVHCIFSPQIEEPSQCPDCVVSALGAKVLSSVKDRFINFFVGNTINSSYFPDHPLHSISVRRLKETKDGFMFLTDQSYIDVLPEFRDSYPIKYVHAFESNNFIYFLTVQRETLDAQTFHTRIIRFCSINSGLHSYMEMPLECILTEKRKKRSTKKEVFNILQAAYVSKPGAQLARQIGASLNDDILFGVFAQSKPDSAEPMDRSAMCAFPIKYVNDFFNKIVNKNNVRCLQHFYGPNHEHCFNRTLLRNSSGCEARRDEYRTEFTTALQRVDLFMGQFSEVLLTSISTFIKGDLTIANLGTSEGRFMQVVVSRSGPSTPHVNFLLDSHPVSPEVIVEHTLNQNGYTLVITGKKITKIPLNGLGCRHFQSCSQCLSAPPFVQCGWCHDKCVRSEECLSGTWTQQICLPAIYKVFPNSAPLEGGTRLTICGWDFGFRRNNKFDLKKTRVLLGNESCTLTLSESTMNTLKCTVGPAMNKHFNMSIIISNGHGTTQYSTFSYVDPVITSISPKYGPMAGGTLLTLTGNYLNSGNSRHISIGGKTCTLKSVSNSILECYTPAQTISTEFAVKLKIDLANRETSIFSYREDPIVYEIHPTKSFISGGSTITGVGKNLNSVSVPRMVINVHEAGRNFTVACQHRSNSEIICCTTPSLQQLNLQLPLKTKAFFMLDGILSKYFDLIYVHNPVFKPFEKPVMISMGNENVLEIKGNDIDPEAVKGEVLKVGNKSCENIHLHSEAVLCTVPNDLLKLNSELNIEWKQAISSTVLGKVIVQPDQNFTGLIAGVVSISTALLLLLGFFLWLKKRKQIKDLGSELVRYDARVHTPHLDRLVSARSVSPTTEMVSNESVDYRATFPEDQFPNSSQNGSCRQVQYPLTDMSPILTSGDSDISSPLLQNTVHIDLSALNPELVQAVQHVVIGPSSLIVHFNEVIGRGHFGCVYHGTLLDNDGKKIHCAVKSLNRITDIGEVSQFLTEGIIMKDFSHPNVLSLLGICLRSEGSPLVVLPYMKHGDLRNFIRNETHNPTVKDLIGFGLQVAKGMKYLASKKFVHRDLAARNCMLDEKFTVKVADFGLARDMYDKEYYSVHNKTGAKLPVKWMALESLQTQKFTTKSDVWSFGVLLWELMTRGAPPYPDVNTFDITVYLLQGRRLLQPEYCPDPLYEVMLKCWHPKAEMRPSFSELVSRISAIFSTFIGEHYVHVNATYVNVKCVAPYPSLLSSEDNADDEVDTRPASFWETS

Row | IC50 [1] [nM] | IC50 [2] [nM] | SMILES
1 | 672 |  | CN1CCN(CCCOC(=O)Nc2cccc(Cn3nc(-n4ccc5ccc(F)cc54)ccc3=O)c2)CC1
2 | > 500 |  | COC(=O)c1ccc2c(c1)oc(=O)n2CCOc1ccnc2cc(OC)ccc12
3 | 160 |  | COc1ccc2c(OCCn3c(=O)oc4cc(N)ccc43)ccnc2c1
4 | 170 |  | Cc1ccc2c(c1)oc(=O)n2CCOc1ccnc2cc(OCCCN3CCN(C)CC3)ccc12
5 | 330 |  | Cc1ccc2c(c1)oc(=O)n2CCOc1ccnc2cc(OCCCCN3CCOCC3)ccc12
6 | > 500 |  | COCCOc1ccc2c(OCCn3c(=O)oc4cc(C)ccc43)ccnc2c1
7 | > 500 |  | COc1ccc2c(OCCn3c(=O)oc4cc(F)ccc43)ccnc2c1
8 | 58 |  | Cc1ccc2c(c1)oc(=O)n2CCOc1ccnc2cc(NCCCN3CCOCC3)ccc12
9 | > 500 |  | Cc1ccc2c(c1)oc(=O)n2CCOc1ccnc2cc(OCCCN3CCCC3)ccc12
10 | > 500 |  | COc1ccc2c(OCCn3c(=O)oc4ccc(C)cc43)ccnc2c1
11 | 120 |  | Cc1ccc2c(c1)oc(=O)n2CCOc1ccnc2cc(OCCN3CCOCC3)ccc12
12 | > 500 |  | COc1ccc2c(OCCn3c(=O)oc4ccc(-c5cnn(C)c5)cc43)ccnc2c1
13 | > 500 |  | COC(=O)c1ccc2oc(=O)n(CCOc3ccnc4cc(OC)ccc34)c2c1
14 | 5 |  | Cn1cc(-c2ccc3c(OCCn4c(=O)oc5cc(-c6cnn(C)c6)ccc54)ccnc3c2)cn1
15 | > 500 |  | COc1ccc2c(OCCn3c(=O)oc4cc(C)ccc43)ccnc2c1
16 | > 500 |  | COc1ccc2c(OCCn3c(=O)oc4cc(N5CCOCC5)ccc43)ccnc2c1
17 | > 500 |  | COc1ccc2c(OCCn3c(=O)oc4ccc(F)cc43)ccnc2c1
18 | 100 |  | COc1ccc2c(OCCn3c(=O)oc4cc(-c5cnn(C)c5)ccc43)ccnc2c1
19 | > 500 |  | COc1ccc2c(OCCn3c(=O)oc4cc(OC)ccc43)ccnc2c1
20 | 170 |  | Cc1ccc2c(c1)oc(=O)n2CCOc1ccnc2cc(OCCCN3CCOCC3)ccc12
21 | 1600 | 1600 | Cc1ccc2c(c1)oc(=O)n2Cc1cccc(NC(=O)OCCCN2CCOCC2)c1
22 | 35 |  | Cc1ccc2c(c1)oc(=O)n2CCOc1ccnc2cc(-c3cnn(C)c3)ccc12
23 | 44 |  | C[C@@H](Oc1cc(-c2cnn(C3CCNCC3)c2)cnc1N)c1c(Cl)ccc(F)c1Cl [CRIZOTINIB]
